Key:
[1] = target: hemolysin alpha from Staphylococcus aureus (Staphylococcus aureus, UniProt P09616); assay: cell-based
[2] = target: S. aureus Alpha hemolysin (Staphylococcus aureus, UniProt P09616); assay: cell-based
Chain of S. aureus Alpha hemolysin (P09616 27-319 limits assumed): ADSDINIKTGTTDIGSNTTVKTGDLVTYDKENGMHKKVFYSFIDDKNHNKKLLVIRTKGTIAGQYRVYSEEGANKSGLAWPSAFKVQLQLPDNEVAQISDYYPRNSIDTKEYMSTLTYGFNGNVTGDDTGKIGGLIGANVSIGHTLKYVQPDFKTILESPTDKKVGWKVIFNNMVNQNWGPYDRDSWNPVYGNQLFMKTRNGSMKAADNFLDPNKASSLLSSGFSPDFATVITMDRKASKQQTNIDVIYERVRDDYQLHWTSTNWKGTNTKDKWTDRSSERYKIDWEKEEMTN

Chain of hemolysin alpha from Staphylococcus aureus (P09616 27-319 limits assumed): as above

SMILES: Cc1cc2[nH]c(=O)c(=O)[nH]c2cc1S(=O)(=O)Nc1ccc(SC(F)(F)F)cc1 [Compound 396, 7-methyl-2,3-dioxo-N-[4-(trifluoromethylsulfanyl)phenyl]-1,4-dihydroquinoxaline-6-sulfonamide]
- EC50 [1]: 0.1 to 1 µM
- EC50 ([2]; A549-LDH Assay activity): 0.03 to 0.1 µM

SMILES: Cc1cc2[nH]c(=O)c(=O)[nH]c2cc1S(=O)(=O)Nc1ccc(I)c(C(F)(F)F)c1 [Compound 325, N-[4-iodo-3-(trifluoromethyl)phenyl]-7-methyl-2,3-dioxo-1,4-dihydroquinoxaline-6-sulfonamide]
- EC50 [1]: 0.1 to 1 µM
- EC50 ([2]; A549-LDH Assay activity): 1 to 6 µM

SMILES: CC(=O)c1ccccc1-c1ccc(NS(=O)(=O)c2cc3[nH]c(=O)c(=O)[nH]c3cc2C)cc1 [Compound 123, N-(2′-acetyl-[1,1′-biphenyl]-4-yl)-7-methyl-2,3-dioxo-1,2,3,4-tetrahydroquinoxaline-6-sulfonamide]
- IC50 [1]: 0.1 to 1 µM
- EC50 ([2]; A549-LDH Assay activity): 1 to 6 µM

SMILES: Cc1cccc(-c2ccc(NS(=O)(=O)c3cc4[nH]c(=O)c(=O)[nH]c4cc3C)cc2Cl)c1 [Compound 23, N-(2-chloro-3′-methyl-[1,1′-biphenyl]-4-yl)-7-methyl-2,3-dioxo-1,2,3,4-tetrahydroquinoxaline-6-sulfonamide]
- IC50 [1]: < 0.03 µM
- EC50 ([2]; A549-LDH Assay activity): 0.03 to 0.1 µM

SMILES: Cc1cc2[nH]c(=O)c(=O)[nH]c2cc1S(=O)(=O)Nc1cc(C)c(-c2cccc(N(C)C)c2)c(C)c1 [Compound 59, N-(3′-(dimethylamino)-2,6-dimethyl-[1,1′-biphenyl]-4-yl)-7-methyl-2,3-dioxo-1,2,3,4-tetrahydroquinoxaline-6-sulfonamide]
- IC50 [1]: 0.03 to 0.1 µM
- EC50 ([2]; A549-LDH Assay activity): 0.1 to 1 µM

SMILES: Cc1cc(NS(=O)(=O)c2cc3[nH]c(=O)c(=O)[nH]c3cc2C)ccc1C(F)(F)F [Compound 91, 7-methyl-N-(3-methyl-4-(trifluoromethyl)phenyl)-2,3-dioxo-1,2,3,4-tetrahydroquinoxaline-6-sulfonamide]
- IC50 [1]: 0.1 to 1 µM
- EC50 ([2]; A549-LDH Assay activity): 0.1 to 1 µM

SMILES: Cc1cc2[nH]c(=O)c(=O)[nH]c2cc1S(=O)(=O)Nc1ccc(C2COC2)cc1 [Compound 384, 7-methyl-N-[4-(oxetan-3-yl)phenyl]-2,3-dioxo-1,4-dihydroquinoxaline-6-sulfonamide]
- EC50 [1]: 1 to 3.5 µM
- EC50 ([2]; A549-LDH Assay activity): 0.1 to 1 µM

SMILES: Cc1nc2ccc(-c3ccc(NS(=O)(=O)c4cc5[nH]c(=O)c(=O)[nH]c5cc4C)cc3Cl)cc2o1 [Compound 269, N-[3-chloro-4-(2-methyl-1,3-benzoxazol-6-yl)phenyl]-7-methyl-2,3-dioxo-1,4-dihydroquinoxaline-6-sulfonamide]
- EC50 [1]: < 0.03 µM
- EC50 ([2]; A549-LDH Assay activity): < 0.03 µM

SMILES: O=c1[nH]c2cc(F)c(S(=O)(=O)Nc3ccc(OC(F)(F)F)cc3)cc2[nH]c1=O [Compound 147, 7-fluoro-2,3-dioxo-N-(4-(trifluoromethoxy)phenyl)-1,2,3,4-tetrahydroquinoxaline-6-sulfonamide]
- IC50 [1]: 0.1 to 1 µM
- EC50 ([2]; A549-LDH Assay activity): 0.1 to 1 µM

SMILES: O=c1[nH]c2cc(F)c(S(=O)(=O)Nc3ccc(C4CCCCC4)cc3)cc2[nH]c1=O [Compound 71, N-(4-cyclohexylphenyl)-7-fluoro-2,3-dioxo-1,2,3,4-tetrahydroquinoxaline-6-sulfonamide]
- IC50 [1]: 0.1 to 1 µM
- EC50 ([2]; A549-LDH Assay activity): 0.1 to 1 µM

SMILES: Cc1cc2[nH]c(=O)c(=O)[nH]c2cc1S(=O)(=O)Nc1ccc(-c2ccccc2N(C)C)cc1 [Compound 119, N-(2′-(dimethylamino)-[1,1′-biphenyl]-4-yl)-7-methyl-2,3-dioxo-1,2,3,4-tetrahydroquinoxaline-6-sulfonamide]
- IC50 [1]: 0.1 to 1 µM
- EC50 ([2]; A549-LDH Assay activity): 0.1 to 1 µM

SMILES: Cc1cc2[nH]c(=O)c(=O)[nH]c2cc1S(=O)(=O)Nc1ccc(-c2ccccc2C(F)(F)F)c(Cl)c1 [Compound 139, N-(2-chloro-2′-(trifluoromethyl)-[1,1′-biphenyl]-4-yl)-7-methyl-2,3-dioxo-1,2,3,4-tetrahydroquinoxaline-6-sulfonamide]
- IC50 [1]: 0.1 to 1 µM
- EC50 ([2]; A549-LDH Assay activity): 1 to 6 µM

SMILES: O=c1[nH]c2cc(Br)c(S(=O)(=O)Nc3ccc(OC(F)(F)F)cc3)cc2[nH]c1=O [Compound 15, 7-bromo-2,3-dioxo-N-(4-(trifluoromethoxy)phenyl)-1,2,3,4-tetrahydroquinoxaline-6-sulfonamide]
- IC50 [1]: < 0.03 µM
- EC50 ([2]; A549-LDH Assay activity): 0.03 to 0.1 µM

SMILES: Cc1cc2[nH]c(=O)c(=O)[nH]c2cc1S(=O)(=O)Nc1ccc(-c2ccc3c(c2)ncn3C)c(Cl)c1 [Compound 283, N-[3-chloro-4-(1-methylbenzimidazol-5-yl)phenyl]-7-methyl-2,3-dioxo-1,4-dihydroquinoxaline-6-sulfonamide]
- EC50 [1]: 0.1 to 1 µM
- EC50 ([2]; A549-LDH Assay activity): 0.1 to 1 µM

SMILES: COc1ccc(-c2ccc(NS(=O)(=O)c3cc4[nH]c(=O)c(=O)[nH]c4cc3C)cc2Cl)cc1C#N [Compound 289, N-[3-chloro-4-(3-cyano-4-methoxy-phenyl)phenyl]-7-methyl-2,3-dioxo-1,4-dihydroquinoxaline-6-sulfonamide]
- EC50 [1]: 0.03 to 0.1 µM
- EC50 ([2]; A549-LDH Assay activity): 0.1 to 1 µM

SMILES: Cc1ccccc1-c1c(C)cc(NS(=O)(=O)c2cc3[nH]c(=O)c(=O)[nH]c3cc2C)cc1C [Compound 125, 7-methyl-2,3-dioxo-N-(2,2′,6-trimethyl-[1,1′-biphenyl]-4-yl)-1,2,3,4-tetrahydroquinoxaline-6-sulfonamide]
- IC50 [1]: 0.1 to 1 µM
- EC50 ([2]; A549-LDH Assay activity): 1 to 6 µM

SMILES: CC(C)c1cc2[nH]c(=O)c(=O)[nH]c2cc1S(=O)(=O)Nc1ccc(C(F)(F)F)cc1 [Compound 152, 7-isopropyl-2,3-dioxo-N-(4-(trifluoromethyl)phenyl)-1,2,3,4-tetrahydroquinoxaline-6-sulfonamide]
- IC50 [1]: 0.1 to 1 µM
- EC50 ([2]; A549-LDH Assay activity): 0.03 to 0.1 µM

SMILES: O=c1[nH]c2cc(C3CC3)c(S(=O)(=O)Nc3cnc(-c4ccc(F)cc4)c(Cl)c3)cc2[nH]c1=O [Compound 379, N-[5-chloro-6-(4-fluorophenyl)-3-pyridyl]-7-cyclopropyl-2,3-dioxo-1,4-dihydroquinoxaline-6-sulfonamide]
- EC50 [1]: 0.1 to 1 µM
- EC50 ([2]; A549-LDH Assay activity): 0.1 to 1 µM

SMILES: Cc1cc2[nH]c(=O)c(=O)[nH]c2cc1S(=O)(=O)Nc1ccc(OC(F)(F)F)cc1 [drawing 469 (R^2 = CH3)]
- EC50 [1]: 0.037 µM
- EC50 ([2]; LDH Assay EC50): 0.014 µM

SMILES: Cc1cc2[nH]c(=O)c(=O)[nH]c2cc1S(=O)(=O)Nc1ccc(-c2ccc(C#N)cc2)c(C(F)(F)F)c1 [Compound 348, N-[4-(4-cyanophenyl)-3-(trifluoromethyl)phenyl]-7-methyl-2,3-dioxo-1,4-dihydroquinoxaline-6-sulfonamide]
- EC50 [1]: < 0.03 µM
- EC50 ([2]; A549-LDH Assay activity): 0.1 to 1 µM

SMILES: Cc1cccc(-c2ccc(NS(=O)(=O)c3cc4[nH]c(=O)c(=O)[nH]c4cc3C)cc2)c1 [Compound 112, 7-methyl-N-(3′-methyl-[1,1′-biphenyl]-4-yl)-2,3-dioxo-1,2,3,4-tetrahydroquinoxaline-6-sulfonamide]
- IC50 [1]: 0.1 to 1 µM
- EC50 ([2]; A549-LDH Assay activity): 0.1 to 1 µM

SMILES: Cc1cc2[nH]c(=O)c(=O)[nH]c2cc1S(=O)(=O)Nc1cc(Cl)c(-c2cccc(Cl)c2)cn1 [Compound 210, N-(4-chloro-5-(3-chlorophenyl)pyridin-2-yl)-7-methyl-2,3-dioxo-1,2,3,4-tetrahydroquinoxaline-6-sulfonamide]
- EC50 [1]: 0.03 to 0.1 µM
- EC50 ([2]; A549-LDH Assay activity): 0.1 to 1 µM

SMILES: O=c1[nH]c2cc(Cl)c(S(=O)(=O)Nc3ccc(-c4ccc(F)c(Cl)c4)c(Cl)c3)cc2[nH]c1=O [Compound 19, 7-chloro-N-(2,3′-dichloro-4′-fluoro-[1,1′-biphenyl]-4-yl)-2,3-dioxo-1,2,3,4-tetrahydroquinoxaline-6-sulfonamide]
- IC50 [1]: < 0.03 µM
- EC50 ([2]; A549-LDH Assay activity): 0.1 to 1 µM

SMILES: COc1ccccc1-c1ccc(NS(=O)(=O)c2cc3[nH]c(=O)c(=O)[nH]c3cc2C)cc1Cl [Compound 72, N-(2-chloro-2′-methoxy-[1,1′-biphenyl]-4-yl)-7-methyl-2,3-dioxo-1,2,3,4-tetrahydroquinoxaline-6-sulfonamide]
- IC50 [1]: 0.1 to 1 µM
- EC50 ([2]; A549-LDH Assay activity): 0.1 to 1 µM

SMILES: Cc1cc2[nH]c(=O)c(=O)[nH]c2cc1S(=O)(=O)Nc1ccc(-c2ccc3c(c2)NC(=O)C3)c(Cl)c1 [Compound 350, N-[3-chloro-4-(2-oxoindolin-6-yl)phenyl]-7-methyl-2,3-dioxo-1,4-dihydroquinoxaline-6-sulfonamide]
- EC50 [1]: 0.03 to 0.1 µM
- EC50 ([2]; A549-LDH Assay activity): 0.03 to 0.1 µM

SMILES: Cc1cc2[nH]c(=O)c(=O)[nH]c2cc1S(=O)(=O)Nc1cc(C)c(-c2ccoc2)c(C)c1 [Compound 107, N-(4-(furan-3-yl)-3,5-dimethylphenyl)-7-methyl-2,3-dioxo-1,2,3,4-tetrahydroquinoxaline-6-sulfonamide]
- IC50 [1]: 0.1 to 1 µM
- EC50 ([2]; A549-LDH Assay activity): 0.03 to 0.1 µM

SMILES: Cc1cc2[nH]c(=O)c(=O)[nH]c2cc1S(=O)(=O)Nc1ccc(-c2ccc(F)cc2)c(N(C)C)c1 [Compound 255, N-[3-(dimethylamino)-4-(4-fluorophenyl)phenyl]-7-methyl-2,3-dioxo-1,4-dihydroquinoxaline-6-sulfonamide]
- EC50 [1]: 0.1 to 1 µM
- EC50 ([2]; A549-LDH Assay activity): 0.1 to 1 µM

SMILES: O=c1[nH]c2ccc(S(=O)(=O)Nc3ccc(C4CC4)cc3)cc2[nH]c1=O [drawing 470 (R^2 = H), reference compound]
- EC50 [1]: 0.423 µM
- EC50 ([2]; LDH Assay EC50): 0.08 µM

SMILES: COCCn1cc(-c2ccc(NS(=O)(=O)c3cc4[nH]c(=O)c(=O)[nH]c4cc3C)cc2Cl)cn1 [Compound 344, N-[3-chloro-4-[1-(2-methoxyethyl)pyrazol-4-yl]phenyl]-7-methyl-2,3-dioxo-1,4-dihydroquinoxaline-6-sulfonamide]
- EC50 [1]: 1 to 3.5 µM
- EC50 ([2]; A549-LDH Assay activity): 1 to 6 µM

SMILES: Cc1cc2[nH]c(=O)c(=O)[nH]c2cc1S(=O)(=O)Nc1ccc(OC(F)(F)F)cc1 [Compound 28, 7-methyl-2,3-dioxo-N-(4-(trifluoromethoxy)phenyl)-1,2,3,4-tetrahydroquinoxaline-6-sulfonamide]
- IC50 [1]: < 0.03 µM
- EC50 ([2]; A549-LDH Assay activity): < 0.03 µM

SMILES: Cc1ccccc1-c1ccc(NS(=O)(=O)c2cc3[nH]c(=O)c(=O)[nH]c3cc2C)cc1 [Compound 89, 7-methyl-N-(2′-methyl-[1,1′-biphenyl]-4-yl)-2,3-dioxo-1,2,3,4-tetrahydroquinoxaline-6-sulfonamide]
- IC50 [1]: 0.1 to 1 µM
- EC50 ([2]; A549-LDH Assay activity): 0.1 to 1 µM

SMILES: Cc1cc2[nH]c(=O)c(=O)[nH]c2cc1S(=O)(=O)Nc1ccc(OC(F)F)cc1 [Compound 394, N-[4-(difluoromethoxy)phenyl]-7-methyl-2,3-dioxo-1,4-dihydroquinoxaline-6-sulfonamide]
- EC50 [1]: 0.1 to 1 µM
- EC50 ([2]; A549-LDH Assay activity): 0.03 to 0.1 µM
